# Values of other authors in patent US20190022221A1 (priority 2015, published 2019).
# What was measured:
# Acinetobacter baumannii = conditions: 1.1-millimeter-thick soft agar layer, light 100 milliWatts per square centimeter
# [1] = system: Zaire Ebola virus (ZEBOV)
# [2] = system: Venezuelan equine encephalitis virus (VEEV)
# [3] = in vivo
compound,measurement,setting,value
[Mn(PaPy3)(NO)](ClO4),clearance of bacteria from treated areas of the plates,Acinetobacter baumannii,effectively cleared the bacteria
"[N-]=[N+]=Nc1cccc2c(I)cccc12 [INA, 1,5-iodonaphthyl azide]",infectivity of ZEBOV after INA treatment,[1],completely noninfectious
same,inactivation of virulent strain of VEEV,[2],efficiently inactivate
"Oc1cccc(-c2c3nc(c(-c4cccc(O)c4)c4ccc([nH]4)c(-c4cccc(O)c4)c4nc(c(-c5cccc(O)c5)c5ccc2[nH]5)CC4)C=C3)c1 [Foscan, Tetra (m-hydroxyphenyl) chlorin]",duration of skin photosensitivity,[3],approximately 2 weeks
"CC(=O)[O-].CC(=O)[O-].CCc1c(CC)c2cc3nc(cnc4cc(OCCOCCOCCOC)c(OCCOCCOCCOC)cc4ncc4nc(cc1[n-]2)C(CCCO)=C4C)C(C)=C3CCCO.O.[Lu+3] [Lutetium texaphryin, Motexafin lutetium]",duration of skin photosensitivity,[3],24 to 48 h
